This assay deals with T1, human GPR119 (Homo sapiens, UniProt Q8TDV5).
T1 construct: expression vector for human GPR119 cDNA (Acc. No. NP_848566); expressed in transfected cells
T1 sequence (Q8TDV5 1-335): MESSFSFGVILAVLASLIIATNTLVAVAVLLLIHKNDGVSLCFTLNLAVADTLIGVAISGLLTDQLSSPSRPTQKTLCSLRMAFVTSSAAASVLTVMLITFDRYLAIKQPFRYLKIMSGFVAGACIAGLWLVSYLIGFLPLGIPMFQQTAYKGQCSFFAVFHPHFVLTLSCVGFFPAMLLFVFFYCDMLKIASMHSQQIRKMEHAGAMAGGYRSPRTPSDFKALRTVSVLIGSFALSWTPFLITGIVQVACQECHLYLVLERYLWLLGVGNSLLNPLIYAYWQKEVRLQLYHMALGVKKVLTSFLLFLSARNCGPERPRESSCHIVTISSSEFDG
Put plainly: AlphaScreen cAMP assay in MIN6 cells stably transfected with human GPR119. It is filed as cell-based. The note with it: Min-6/hGPR119 cells, AlphaScreen cAMP Assay Kit, 45 minutes incubation at room temperature. The method, then: The compounds of formula I according to the invention modulate the activity of the G-protein-coupled receptor GPR119. The effect of the compounds on the activation of GPR119 and on the stimulation of intracellular cAMP concentration is determined using the AlphaScreen cAMP Assay Kit (Cat. No. #6760625R) made by PerkinElmer.
MIN6 cells [Miyazaki J et al. Endocrinology. 1990 July; 127(1):126-32] are stably transfected with an expression vector for human GPR119 cDNA (Acc. No. NP_848566). Min-6/hGPR119 cells are cultured in DMEM, 10% FBS, 50 μM β-mercaptoethanol, 0.3 mg/mL Geniticin, 2 mM GlutaMAX at 37° C. 5% CO2. For the assay, the cells are seeded in Optiplates (white, 384-well, 160 W-barcoded, TC, sterile with lid, Cat. No. #6007688 (Perkin Elmer); 10000 cells/well; 50 μl). The plates covered with lids are then incubated for 24 hours at 37° C./5% CO2. After the medium is aspirated from the wells completely, 10 μl of the test compound are added, the compounds are diluted using stimulating buffer (140 mM NaCl, 3.6 mM KCl, 0.5 mM NaH2PO4, 0.5 mM MgSO4, 1.5 mM CaCl2, 10 mM Hepes, 5 mM NaHCO3; pH 7.4. 0.5 mM IBMX and 0.1% BSA, the final DMSO concentration is 1%). After 45 minutes incubation at room temperature (approx. 20° C.), the cAMP concentrations are determined using the AlphaScreen cAMP Assay Kit (Cat. No. #6760625R from PerkinElmer).

The results in this text go back to US8822471B2, “Compounds, pharmaceutical compositions and uses thereof” (Boehringer Ingelheim International GmbH, priority 2011, dated 2014).

The EC50 is the midpoint of the concentration-response curve. For the compound `CCCc1nc(N2CCC(N(C(=O)c3ccc(-c4cnco4)cc3)C3CC3)CC2)no1` [Example 59, N-Cyclopropyl-4-oxazol-5-yl-N-[1-(5-propyl-[1,2,4]oxadiazol-3-yl)-piperidin-4-yl]-benzamide], the EC50 stood at 23 nM. The same measure for `O=C(c1ccc(-c2cnco2)cc1)N(C1CC1)C1CCN(c2nc(CCC(F)(F)F)no2)CC1` [Example 60, N-Cyclopropyl-4-oxazol-5-yl-N-{1-[3-(3,3,3-trifluoro-propyl)-[1,2,4]oxadiazol-5-yl]-piperidin-4-yl}-benzamide]: 50 nM. The value for `Cc1cnc(N2CCC(N(C(=O)c3ccc(-c4cnco4)cc3)C3CC3)CC2)cn1` [Example 61, N-Cyclopropyl-N-[1-(5-methyl-pyrazin-2-yl)-piperidin-4-yl]-4-oxazol-5-yl-benzamide] was 52 nM; that for `O=C(c1ccc(-c2cnco2)cc1)N(C1CC1)C1CCN(c2nc(CC(F)(F)F)no2)CC1` [Example 62, N-Cyclopropyl-4-oxazol-5-yl-N-{1-[3-(2,2,2-trifluoro-ethyl)-[1,2,4]oxadiazol-5-yl]-piperidin-4-yl}benzamide] was 16 nM. The value for `CCc1cnc(N2CCC(N(C(=O)c3ccc(-c4cnco4)c(F)c3)C3CC3)CC2)nc1` [Example 63, N-Cyclopropyl-N-[1-(5-ethyl-pyrimidin-2-yl)-piperidin-4-yl]-3-fluoro-4-oxazol-5-yl-benzamide] was 3 nM; that for `CC(C)c1noc(N2CCC(N(C(=O)c3ccc(-c4cnco4)c(F)c3)C3CC3)CC2)n1` [Example 64, N-Cyclopropyl-3-fluoro-N-[1-(3-isopropyl-[1,2,4]oxadiazol-5-yl)-piperidin-4-yl]-4-oxazol-5-yl-benzamide] was 4 nM. `CCCc1noc(N2CCC(N(C(=O)c3ccc(-c4cnco4)c(F)c3)C3CC3)CC2)n1` [Example 65, N-Cyclopropyl-3-fluoro-4-oxazol-5-yl-N-[1-(3-propyl-[1,2,4]oxadiazol-5-yl)-piperidin-4-yl]-benzamide] had an EC50 of 7 nM. Consider `Cc1cnc(N2CCC(N(C(=O)c3ccc(-c4cnco4)c(F)c3)C3CC3)CC2)cn1` [Example 66, N-Cyclopropyl-3-fluoro-N-[1-(5-methyl-pyrazin-2-yl)-piperidin-4-yl]-4-oxazol-5-yl-benzamide], for which a half-maximal response (EC50) required 210 nM. `CC(C)(C)c1noc(N2CCC(N(C(=O)c3ccc(-c4cnco4)c(F)c3)C3CC3)CC2)n1` [Example 67, N-[1-(3-tert-Butyl-[1,2,4]oxadiazol-5-yl)-piperidin-4-yl]-N-cyclopropyl-3-fluoro-4-oxazol-5-yl-benzamide] had an EC50 of 188 nM.

For `CCc1cnc(N2CCC(N(C(=O)c3ccc(-c4cnco4)c(F)c3)C3CC3)CC2)cn1` [Example 68, N-Cyclopropyl-N-[1-(5-ethyl-pyrazin-2-yl)-piperidin-4-yl]-3-fluoro-4-oxazol-5-yl-benzamide], the midpoint of the response, the EC50, lay at 211 nM. The value for `CC(C)c1noc(N2CCC(N(C(=O)c3cc(F)c(-c4cnco4)c(F)c3)C3CC3)CC2)n1` [Example 69, N-Cyclopropyl-3,5-difluoro-N-[1-(3-isopropyl-[1,2,4]oxadiazol-5-yl)-piperidin-4-yl]-4-oxazol-5-yl-benzamide] was 198 nM. The same measure for `Cc1cnc(N2CCC(N(C(=O)c3ccc(-c4cnco4)c(F)c3)C3CC3)CC2)nc1` [Example 70, N-Cyclopropyl-3-fluoro-N-[1-(5-methyl-pyrimidin-2-yl)-piperidin-4-yl]-4-oxazol-5-yl-benzamide]: 191 nM; for `O=C(c1ccc(-c2cnco2)cc1)N(C1CC1)C1CCN(c2ncc(Br)cc2F)CC1` [Example 71, N-(5′-Bromo-3′-fluoro-3,4,5,6-tetrahydro-2H-[1,2′]bipyridinyl-4-yl)-N-cyclopropyl-4-oxazol-5-yl-benzamide]: 11 nM; for `O=C(c1ccc(-c2cnco2)cc1)N(C1CC1)C1CCN(c2ccc(C3CC3)nn2)CC1` [Example 72, N-Cyclopropyl-N-[1-(6-cyclopropyl-pyridazin-3-yl)-piperidin-4-yl]-4-oxazol-5-yl-benzamide]: 864 nM. The same measure for `Cc1cnc(N2CCC(N(C(=O)c3ccc(-c4cnco4)cc3)C3CC3)CC2)c(F)c1` [Example 73, N-Cyclopropyl-N-(3′-fluoro-5′-methyl-3,4,5,6-tetrahydro-2H-[1,2′]bipyridinyl-4-yl)-4-oxazol-5-yl-benzamide]: 38 nM; for `O=C(c1ccc(-c2cnco2)cc1)N(C1CC1)C1CCN(c2ncc(C(F)(F)F)cc2F)CC1` [Example 74, N-Cyclopropyl-N-(3′-fluoro-5′-trifluoromethyl-3,4,5,6-tetrahydro-2H-[1,2′]bipyridinyl-4-yl)-4-oxazol-5-yl-benzamide]: 8 nM; for `CCCOc1cnc(N2CCC(N(C(=O)c3ccc(-c4cnco4)cc3)C3CC3)CC2)nc1` [Example 75, N-Cyclopropyl-4-oxazol-5-yl-N-[1-(5-propoxy-pyrimidin-2-yl)-piperidin-4-yl]-benzamide]: 87 nM. Take `CCOc1cnc(N2CCC(N(C(=O)c3ccc(-c4cnco4)cc3)C3CC3)CC2)nc1` [Example 76, N-Cyclopropyl-N-[1-(5-ethoxy-pyrimidin-2-yl)-piperidin-4-yl]-4-oxazol-5-yl-benzamide]: the EC50 came to 165 nM. Take `CC(C)Oc1cnc(N2CCC(N(C(=O)c3ccc(-c4cnco4)cc3)C3CC3)CC2)nc1` [Example 77, N-Cyclopropyl-N-[1-(5-isopropoxy-pyrimidin-2-yl)-piperidin-4-yl]-4-oxazol-5-yl-benzamide]: it took 115 nM to reach a half-maximal effect (EC50).

In the case of `O=C(c1ccc(-c2cnco2)cc1)N(C1CC1)C1CCN(c2cnc(C3CC3)cn2)CC1` [Example 78, N-Cyclopropyl-N-[1-(5-cyclopropyl-pyrazin-2-yl)-piperidin-4-yl]-4-oxazol-5-yl-benzamide], the EC50 amounted to 43 nM. The value for `O=C(c1ccc(-c2cnco2)cc1)N(C1CC1)C1CCN(c2nnc(-c3ccccc3)s2)CC1` [Example 79, N-Cyclopropyl-4-oxazol-5-yl-N-[1-(5-phenyl-[1,3,4]thiadiazol-2-yl)-piperidin-4-yl]-benzamide] was 75 nM; that for `O=C(c1ccc(-c2cnco2)cc1)N(C1CC1)C1CCN(c2ccc(Cl)cn2)CC1` [Example 80, N-(5′-Chloro-3,4,5,6-tetrahydro-2H-[1,2′]bipyridinyl-4-yl)-N-cyclopropyl-4-oxazol-5-yl-benzamide] was 179 nM. Compound `COC(=O)c1cnc(N2CCC(N(C(=O)c3ccc(-c4cnco4)cc3)C3CC3)CC2)cn1` [Example 81, 5-{4-[Cyclopropyl-(4-oxazol-5-yl-benzoyl)-amino]-piperidin-1-yl}-pyrazine-2-carboxylic acid methyl ester] returned an EC50 of 498 nM. The value for `Cc1cnc(C)c(N2CCC(N(C(=O)c3ccc(-c4cnco4)cc3)C3CC3)CC2)n1` [Example 82, N-Cyclopropyl-N-[1-(3,6-dimethyl-pyrazin-2-yl)-piperidin-4-yl]-4-oxazol-5-yl-benzamide] was 116 nM; that for `O=C(c1ccc(-c2cnco2)cc1)N(C1CC1)C1CCN(c2cnc(I)cn2)CC1` [Example 83, N-Cyclopropyl-N-[1-(5-iodo-pyrazin-2-yl)-piperidin-4-yl]-4-oxazol-5-yl-benzamide] was 10 nM.
